This is an account of results in patent publication US7417023B2, “Targeted delivery of bioaffecting compounds for the treatment of cancer” (Faulk Pharmaceuticals, Inc., priority 2001, dated 2008).

One series deals with transferrin receptors. Put plainly: regulation of transferrin receptors on drug-sensitive and drug-resistant cancer cells. Type of series: cell-based. As to conditions: more on drug-resistant than on drug-sensitive cells.
For series [1], the system named is drug-sensitive cancer cells. Put plainly: viability of drug-sensitive cancer cells. Conditions: after 48 hours in a given concentration. It is filed as cell-based. The text has this:
(§1) In order to test the relationship between calcium and transferrin receptors, the effect of calcium channel inhibitors on the regulation of transferrin receptors was studied in drug-sensitive and drug-resistant cancer cells. […]. […] The addition of both iron and calcium channel blockers had no effect on cell viability.
(§2) In light of the above findings, another series of experiments were done to determine whether the restriction of iron by deferoxamine had differential effects on drug-sensitive and drug-resistant cancer cells.

In series [2] the test system is drug-resistant cancer cells. Nature of the series: viability of drug-resistant cancer cells. It is filed as cell-based. Conditions: after 48 hours in a given concentration.
Text: as §1, §2

Another series deals with advanced ovarian cancer. Put plainly: unpublished clinical study of 23 patients with advanced ovarian cancer. As to conditions: equivalent to 1 mg doxorubicin per day, days 15 through 19 of monthly cycles; time between diagnosis and randomization 18 months; vs placebo. It is filed as in vivo, human. As to the method: There is an unpublished clinical study of 23 patients with advanced ovarian cancer who were randomized into test (12 patients) and placebo (11 patients) groups. The test group received transferrin-doxorubicin conjugates equivalent to 1 mg doxorubicin per day on days 15 through 19 of monthly treatment cycles.

Series [3] has as its system metastatic disease from a sarcoma.
The test system of a further series is human mesothelioma cells. Conditions: nude mice, compared to animals treated only with doxorubicin; cited from earlier work.
The subject of series [4] is doxorubicin-resistant cancer cells. As to conditions: cited from earlier work.
For series [5], the system named is leukemic cells in peripheral blood. Conditions: cited from earlier work.

Read-outs that look alike come from different tables or passages of the source.

Consider `[Cl][Cd][Cl]` [CdCl2, reference compound], for which the “regulation of transferrin receptors by calcium channel blockers or iron” value with transferrin receptors is listed as “down-regulation of receptors”.
One may read the viability as a read-out of living cells in per cent, often relative to untreated cells. The low end stands for more harm to the cells, the high end for less harm to the cells. `CC(=O)N(O)CCCCCNC(=O)CCC(=O)N(O)CCCCCNC(=O)CCC(=O)N(O)CCCCCN` [deferoxamine] showed a viability in series [1] of 93%. In addition, in series [2], the “viability (cells alive)” value was determined as 16%.
Take transferrin-doxorubicin conjugates: the “Cox regression estimates of survival rates” value in the series on advanced ovarian cancer was “significant difference”. Moreover, the “radiological evidence of tumor” value in series [3] (by January) is listed as “no radiological evidence of tumor”. In addition, in series [3] (treatment begun August 2000, by November), the “metastatic lesions of the lungs” value is listed as “substantially cleared of metastatic lesions”. Besides, the survival result with human mesothelioma cells was “significantly prolonging life”. The “killing of drug-resistant cancer cells” value in series [4] is “effectively kill multi-drug resistant cells”; in series [4] (listed as doxorubicin conjugates of transferrin), “kill doxorubicin-resistant cancer cells”. Besides, in series [5] (7 acute leukemia patients, 1 mg/day intravenously for 5 days), the toxic effects result is “no toxic effects”. In addition, the “decrease of the number of leukemic cells in peripheral blood” value in series [5] (7 patients, within 10-days following therapy) is given as 86%. For the same compound, the “extension of disease by bone marrow biopsies” value in series [5] (before and after treatment) is “no extension of disease”.
Turning to “transferrin-bound iron: iron bound to transferrin”, the “regulation of transferrin receptors by calcium channel blockers or iron” value in the series with transferrin receptors is given as “down-regulated receptors much more on drug-resistant cells”.
Turning to `COc1cccc2c1C(=O)c1c(O)c3c(c(O)c1C2=O)C[C@@](O)(C(=O)CO)C[C@@H]3O[C@H]1C[C@H](N)[C@H](O)[C@H](C)O1` [doxorubicin, reference compound], the “killing of drug-resistant cancer cells” value in series [4] is reported as “not killed by 10-fold higher concentrations”.
